How the values were obtained:
K-Ras G12S = target: T1, K-Ras G12S (Homo sapiens, UniProt P01116, G12S); test: HTRF assay, K-Ras G12S / SOS1 interaction; format: biochemical; conditions: IC50 against K-Ras G12D divided by IC50 against K-Ras G12S
T1 construct: made in house; host or cells: E. coli, e.g. BL21 (DE3)
Excerpt: This assay can be also used to assess a selective inhibition or reduction of signaling output of a mutant Ras protein relative to a wildtype, or relative to a different mutant Ras protein. For example, the equilibrium interaction of wildtype Kras or K-Ras mutant (e.g., wildtype or a mutant thereof including those mentioned in Example 6) with SOS1 (e.g., hSOS1) can be assessed as a proxy or an indication for a subject compound's ability to bind and inhibit Ras protein. HTRF assay detects from (i) a fluorescence resonance energy transfer (FRET) donor (e.g., antiGST-Europium) that is bound to GST-tagged K-Ras mutant to (ii) a FRET acceptor (e.g., anti-6His -XL665) bound to a His -tagged hSOS1.
The assay buffer can contain ˜5 mM HEPES pH 7.4, ˜150 mM NaCl, ˜1 mM DTT, 0.05% BSA and 0.0025% (v/v) Igepal. A Ras working solution is prepared in an assay buffer containing typically a suitable amount of the protein construct (e.g., GST-tagged K-Ras mutant) and the FRET donor (e.g., antiGST-Eu(K) from Cisbio, France). A SOS1 working solution is prepared in an assay buffer containing suitable amount of the protein construct (e.g., His -hSOS1) and the FRET acceptor (e.g., anti-6His -XL665 from Cisbio, France). A suitable amount of the protein construct will depend on the range of activity or range of IC50 values being detected or under investigation. For detecting IC50 within a range of 500 nM, the protein constructs of the same range of molarity can be utilized.
A fixed volume of DMSO with or without test compound is transferred into a 384-well plate. Ras working solution is added to all wells of the test plate. SOS1 working solution is added to all wells except for those that are subsequently filled the inhibitor control solution. Upon incubation for about 10 minutes or longer, the fluorescence is measured with a M1000Pro plate reader (Tecan) using HTRF detection (excitation 337 nm, emission 1: 620 nm, emission 2: 665 nm). Compounds are tested in duplicates at different concentrations (for example, 10 μM, 2.5 μM, 0.63 μM, 0.16 μM, 0.04 μM, 0.01 μM test compound). The ratiometric data (i.e., emission 2 divided by emission 1) is used to calculate IC50 values against Ras using GraphPad Prism (GraphPad software). Following this general procedure, samples were tested with or without a subject compound disclosed herein including compounds exemplified in Table 3 to assess their abilities to inhibit K-Ras G12S relative to another mutant (e.g., K-Ras G12D). Signaling output measured in terms of IC50 values can be obtained, a ratio of IC50 against one mutant relative to another mutant can be calculated. For instance, a selective reduction of K-Ras G12S signaling output can be evidenced by a ratio greater than one. In particular, a selective reduction of K-Ras G12S signaling relative to K-Ras G12D signaling is evidenced as the ratio of IC50 (against K-Ras G12D) to IC50 (against K-Ras G12S) is greater than 1.

GP2D cells = test: Cell proliferation assay (CellTiter-Glo), K-Ras G12D cells; format: cell-based; conditions: bins given, read-out: Inhibition of GP2D Cells (IC50)
Experimental: ASPC-1 (ATCC CRL-1682), Panc-10.05 (ATCC CRL-2547), A427, and GP2D (Sigma 95090714) cell lines comprise a G12D mutation and can be used to assess Ras cellular signaling in vitro, e.g., in response to the compounds herein. […] ASPC-1 culture medium is prepared with RPMI-1640 and 10% heat-inactivated FBS. Panc-10.05 culture medium is prepared with RPMI-1640, 10 Units/ml human recombinant insulin, and 10% FBS. A427 cell culture is prepared with RPMI-1640 and 10% heat-inactivated FBS. GP2D culture medium is prepared with DMEM with 2 mM glutamine and 10% heat-inactivated FBS. A CellTiter-Glo (CTG) luminescent based assay (Promega) is used to assess growth of the cells, as a measurement of the ability of the compounds herein to inhibit Ras signaling in the cells. The cells (e.g., 800 per well) are seeded in their respective culture medium in standard tissue culture-treated 384-well format plates (Falcon #08-772-116) or ultra-low attachment surface 384-well format plates (S-Bio #MS-9384UZ). The day after plating, cells are treated with a dilution series (e.g., a 9 point 3-fold dilution series) of the compounds herein (e.g., approximately 40 μl final volume per well). Cell viability can be monitored (e.g., approximately 5 days later) according to the manufacturer's recommended instructions, where the CellTiter-Glo reagent is added (e.g., approximately 10 μl), vigorously mixed, covered, and placed on a plate shaker (e.g., approximately for 20 min) to ensure sufficient cell lysis prior to assessment of luminescent signal. The IC50 values are determined using the four parameter fit. The resulting IC50 value is a measurement of the ability of the compounds herein to reduce cell growth of Ras-driven cells (e.g., tumor cell lines) in vitro and/or in vivo.

A549 cells = test: Cell proliferation assay (CellTiter-Glo), K-Ras G12S cells; format: cell-based; conditions: Homo sapiens, A549; ≤500 nM; read-out: Inhibition of A549 Cells (IC50)
Experimental: (§1) A549 (ATCC CRL-185) and LS123 (ATCC CRL-255) cell lines comprise a G12S mutation and can be used to assess Ras cellular signaling in vitro, e.g., in response to the compounds herein. A549 culture medium is prepared with RPMI-1640 and 10% heat-inactivated FBS. LS123 culture medium is prepared with RPMI-1640 and 10% heat-inactivated FBS. A CellTiter-Glo (CTG) luminescent based assay (Promega) is used to assess growth of the cells, as a measurement of the ability of the compounds herein to inhibit Ras signaling in the cells. The cells (e.g., 800 per well) are seeded in their respective culture medium in standard tissue culture-treated 384-well format plates (Falcon #08-772-116) or ultra-low attachment surface 384-well format plates (S-Bio #MS-9384WZ). The day after plating, cells are treated with a dilution series (e.g., a 10 point 3-fold dilution series) of the compounds herein (e.g., approximately 40 μl final volume per well). Cell viability can be monitored (e.g., approximately 6 days later) according to the manufacturer's recommended instructions, where the CellTiter-Glo reagent is added (e.g., approximately 10 μl), vigorously mixed, covered, and placed on a plate shaker (e.g., approximately for 20 min) to ensure sufficient cell lysis prior to assessment of luminescent signal. The IC50 values are determined using the four parameter fit. The resulting IC50 value is a measurement of the ability of the compounds herein to reduce cell growth of Ras-driven cells (e.g., tumor cell lines) in vitro and/or in vivo.

[1] = target: T2, KRAS G12D 1-169 (His-tagged, GDP-loaded) (Homo sapiens, UniProt P01116, G12D); test: Covalent modification of KRAS protein by intact-protein LC-MS; format: binding; conditions: comparable or same conditions as K-Ras G12S
T2 construct: His -tagged GDP-loaded G12D 1-169; made in house; host or cells: E. coli, e.g. BL21 (DE3)
How it was run: (§2)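 Percent modification is derived from deconvoluted intact-protein LC-ESI-MS peak intensities of adducted versus unmodified KRAS. GDP-loaded His-tagged KRAS 1-169 (~2 μM, HEPES buffer at physiological conditions) was exposed to compound for 24 hrs at room temperature, then quenched with formic acid before C4 reversed-phase separation.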

[2] = target: T3, KRAS G12S 1-169 (His-tagged, GDP-loaded) (Homo sapiens, UniProt P01116, G12S); test: as above; format: binding; conditions: KRAS G12S, 24 hr
T3 construct: His -tagged GDP-loaded G12S 1-169; made in house; host or cells: E. coli, e.g. BL21 (DE3)
How it was run: as §2

LS123 cells = test: Cell proliferation assay (CellTiter-Glo), K-Ras G12S cells; format: cell-based; conditions: Comparative Compound A lacking the warhead vs Compound B
Experimental: as §1

in vitro = conditions: microsomes, pH 7.4

covalent labeling of K-Ras G12D [1] | Structure (SMILES) | IC50 (GP2D cells) [nM] | IC50 (A549 cells) [nM] | Compound IC50 Ratio IC50 (Cpd A):IC50 (Cpd B) (LS123 cells) | also measured
 | N#Cc1cn(C(=O)N2CC3(CCN(c4nc(OC[C@@]56CCCN5C[C@H](F)C6)nc5c(F)c(-c6ccc(F)c7sc(N)nc67)c(Cl)cc45)CC3)C2)cn1 [Compound A179, 1-(7-(7-(2-amino-7-fluorobenzo-[d]thiazol-4-yl)-6-chloro-8-fluoro-2-(((2R,7aS)-2-fluoro-tetrahydro-1H-pyrrolizin-7a(5H)-yl)methoxy)quinazolin-4-yl)-2,7-diazaspiro[3.5]nonane-2-carbonyl)-1H-imidazole-4-carbonitrile] | 1000 to 10000 |  |  | Ratio of IC50 KRAS G12D vs. IC50 KRAS G12S (K-Ras G12S): A (A: indicates that the ratio of IC50 against KrasG12D vs. IC50 against KrasG12S is 1-fold or greater)
 | Cc1cn(C(=O)N2C3CCC2CN(c2nc(OC[C@@]45CCCN4C[C@H](F)C5)nc4c(F)c(-c5ccc(F)c6sc(N)c(C#N)c56)c(Cl)cc24)C3)nn1 [Compound A189, 2-amino-4-(6-chloro-8-fluoro-2-(((2R,7aS)-2-fluorotetrahydro-1H-pyrrolizin-7a(5H)-yl)meth-oxy)-4-(8-(4-methyl-1H-1,2,3-triazole-1-carbonyl)-3,8-diaza-bicyclo[3.2.1]octan-3-yl)quin-azolin-7-yl)-7-fluorobenzo[b]-thiophene-3-carbonitrile] | ≤ 1000 | ≤ 500 |  | 
essentially no detectable labeling | N#Cc1c(N)sc2c(F)ccc(-c3c(Cl)cc4c(N5CC(F)(F)C6(CN(C(=O)n7cncn7)C6)C5)nc(OC[C@@]56CCCN5C[C@H](F)C6)nc4c3F)c12 [Compound A199, 2-amino-4-(6-chloro-4-(8,8-difluoro-2-(1H-1,2,4-triazole-1-carbonyl)-2,6-diazaspiro[3.4]-octan-6-yl)-8-fluoro-2-(((2R,7aS)-2-fluorotetrahydro-1H-pyrrolizin-7a(5H)-yl)meth-oxy)quinazolin-7-yl)-7-fluoro-benzo[b]thiophene-3-carbonitrile] | 1000 to 10000 | ≤ 500 |  | % G12S Modification at 24 hr. [2]: +++ (+++ indicates greater than 20% labelling)
 | C#Cc1c(F)ccc2cc(O)cc(-c3ccc4c(N5CCCC6(CN(C(=O)n7cncn7)C6)C5)nc(OC[C@@]56CCCN5C[C@H](F)C6)nc4c3F)c12 [Compound A210, (6-(7-(8-ethynyl-7-fluoro-3-hydroxynaphthalen-1-yl)-8-fluoro-2-(((2R,7aS)-2-fluoro-tetrahydro-1H-pyrrolizin-7a(5H)-yl)methoxy)quinazolin-4-yl)-2,6-diazaspiro[3.5]nonan-2-yl)(1H-1,2,4-triazol-1-yl)-methanone] |  |  | >4 (LS123 cells) | 
 | C#Cc1c(F)ccc2cc(O)cc(-c3ncc4c(N5CC6CCC(C5)N6C(=O)n5ccc(C#N)n5)nc(OC[C@@]56CCCN5C[C@H](F)C6)nc4c3F)c12 [Compound A216, 1-(3-(7-(8-ethynyl-7-fluoro-3-hydroxynaphthalen-1-yl)-8-fluoro-2-(((2R,7aS)-2-fluoro-tetrahydro-1H-pyrrolizin-7a(5H)-yl)methoxy)pyrido[4,3-d]pyrimidin-4-yl)-3,8-diaza-bicyclo[3.2.1]octane-8-carbon-yl)-1H-pyrazole-3-carbonitrile] | ≤ 1000 | ≤ 500 |  | half-life at 0.5 μM (in vitro): > 10 min
essentially no detectable labeling | N#Cc1c(N)sc2c(F)ccc(-c3c(Cl)cc4c(N5CCCCC6(CN(C(=O)n7cncn7)C6)C5)nc(OC[C@@]56CCCN5C[C@H](F)C6)nc4c3F)c12 [Compound A295, 4-(4-(2-(1H-1,2,4-triazole-1-carbonyl)-2,6-diazaspiro[3.6]-decan-6-yl)-6-chloro-8-fluoro-2-(((2R,7aS)-2-fluorotetra-hydro-1H-pyrrolizin-7a(5H)-yl)methoxy)quinazolin-7-yl)-2-amino-7-fluorobenzo[b]thio-phene-3-carbonitrile] |  |  | >4 (LS123 cells) | 

From US20240368191A1, “HETEROCYCLIC COMPOUNDS AND USES THEREOF” (Kumquat Biosciences Inc., priority 2021, published 2024)
